Consider 7 compounds from paper PMC6635827 (Drug Design, Development and Therapy, 2019).

Like-named read-outs stand apart in the source and are kept apart here.

One assay relates to tyrosinase. Put plainly: Tyrosinase zymography. The settings on record: L-DOPA staining, compared to untreated control. The format is biochemical, mushroom.
The target in assay [1] is T1, mushroom tyrosinase (Agaricus bisporus, UniProt C7FF04). The experiment in a line: Mushroom tyrosinase inhibition assay. The format is biochemical. The note with it: for inhibition at 30 µM: read-out: percent inhibition.
In assay [2] the target is T1, mushroom tyrosinase. The note with it: cited from earlier work.

T1 sequence (C7FF04 1-392): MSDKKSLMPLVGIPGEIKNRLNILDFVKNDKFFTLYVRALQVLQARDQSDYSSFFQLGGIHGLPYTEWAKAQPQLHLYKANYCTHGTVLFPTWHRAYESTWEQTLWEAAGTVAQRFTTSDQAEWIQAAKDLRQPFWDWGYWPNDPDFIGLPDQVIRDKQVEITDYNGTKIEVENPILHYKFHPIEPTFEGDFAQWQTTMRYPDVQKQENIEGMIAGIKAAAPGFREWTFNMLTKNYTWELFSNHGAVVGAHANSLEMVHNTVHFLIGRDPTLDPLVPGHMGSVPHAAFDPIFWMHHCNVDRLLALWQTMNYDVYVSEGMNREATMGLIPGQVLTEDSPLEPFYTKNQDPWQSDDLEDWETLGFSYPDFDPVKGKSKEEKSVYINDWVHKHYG

Regarding `Nc1nc(N)c(N=Nc2ccccc2[N+](=O)[O-])c(Cl)n1` [Compound 1a, 6-chloro-5-((2-nitrophenyl)diazenyl) pyrimidine-2,4-diamine], the “band intensity on zymogram (inhibitory effect on tyrosinase activity)” value in the assay on tyrosinase was “lightest bands”. As for `COc1ccc(N=Nc2c(N)nc(N)nc2Cl)cc1` [Compound 1e, 6-chloro-5-((4-methoxyphenyl)diazenyl) pyrimidine-2,4-diamine], the inhibition at 30 µM on mushroom tyrosinase [1] stood at 55.1%. In the case of `COc1ccc(N=Nc2c(N)nc(N)nc2N)cc1` [Compound 2d, 5-((4-methoxyphenyl)diazenyl) pyrimidine-2,4,6-triamine], the “band intensity on zymogram (inhibitory effect on tyrosinase activity)” value in the assay with tyrosinase is “minimal inhibitory effect”. Consider `O=c1cc[nH]c(=S)[nH]1` [thiouracil], for which, on mushroom tyrosinase [2], the IC50 is 128 µM and the Inhibition type result is “noncompetitive inhibitors”. Regarding `Nc1nc(N)c(N=Nc2ccc([N+](=O)[O-])cc2)c(Cl)n1` [Compound 1b, 6-chloro-5-((4-nitrophenyl)diazenyl) pyrimidine-2,4-diamine], on mushroom tyrosinase [1], the inhibition at 30 µM amounted to 23.7%. As to `Cc1cc(=O)[nH]c(=S)[nH]1` [methylthiouracil], on mushroom tyrosinase [2], the IC50 is 142 µM and the Inhibition type result is reported as “noncompetitive inhibitors”. As for `CC(=O)Nc1ccc(N=Nc2c(N)nc(N)nc2Cl)cc1` [Compound 1d, N-(4-((2,4-diamino-6-chloropyrimidin-5-yl)diazenyl)phenyl) acetamide], the “band intensity on zymogram (inhibitory effect on tyrosinase activity)” value in the assay with tyrosinase is on record as “lightest bands”. On mushroom tyrosinase [1], this compound registered an IC50 of 24.5 µM.

A word on the inhibition: it is the relative decrease from the control value, in per cent. The term IC50 denotes the concentration that inhibits the measured activity by half.
